According to patent US7691858B2, “Kinase inhibitors and methods of use thereof” (TargeGen, Inc., priority 2006, dated 2010):

Key:
EC = EC proliferation; assay type: cell-based; details: inhibitors at 10 μM; 24, 48, 72 h
Source text: Applicants therefore compared the compounds profiled in Table 1 for their effects on cell proliferation.

ERK phosphorylation = assay: VEGF-stimulated ERK phosphorylation in EC (Western blot); assay type: cell-based; details: 10 uM Compound I, EC with VEGF
Experimental: (§1) FIG. 3. Inhibition of cell proliferation and signaling. (a) EC were cultured in the presence of vehicle (DMSO) or PI3K inhibitors (all at 10 μM); cell proliferation was assessed either 24 (open bar), 48 (grey bar), or 72 h (black bar) later.
(§2) Western blots: Cell cultures were rinsed twice with PBS and then lysed using RIPA buffer (100 mM Tris, 150 mM NaCl, 2 mM CaCl2, 1% deoxycholic acid, 1% Triton X-100, 0.1% SDS, pH 7.5) containing PMSF (2 mM), NaF (500 mM), aprotinin (10 μg/ml), leupeptin (10 μg/ml) and vanadate (1 mM). Tissue samples were placed in ice-cold RIPA buffer and processed to lysates using a FastPrep homogenizer (QBiogene, Carlsbad, Calif.). Lysates were centrifuged at 15,000×g followed by assay for total protein using the bicinchoninic acid method (Pierce Biotechnology, Rockford, Ill.), then loaded at equal protein concentration onto gels for SDS-PAGE electrophoresis and Western blotting. For phosphorylated VE-cadherin detection blots were probed with primary antibody (Santa Cruz Biotechnology, Santa Cruz, Calif.) followed by a chemiluminescent detection system (Pierce Biotechnology). The same techniques were used to detect both phosphorylated and total ERK and Akt, except that primary antibodies were supplied by Cell Signaling Technology (Beverly, Mass.) and BD Biosciences (San Jose, Calif.), respectively.

[1] = system: VE-cadherin phosphorylation; assay: VEGF-induced VE-cadherin phosphorylation in EC (Western blot); assay type: cell-based; details: 10 uM Compound I, EC with VEGF
Experimental: as §1, §2

EphA2 = EphA2 (Homo sapiens, UniProt P29317); assay: Kinase panel screen; assay type: biochemical; details: Compound I and ATP 10 μM
PKCi = target: T1, PKCi (Homo sapiens, UniProt P41743); assay: Kinase panel screen; assay type: biochemical; details: Compound I and ATP 10 μM
T1 construct: purchased Upstate USA or Invitrogen (commercial screening service)

EphA4 = target: T2, EphA4 (Homo sapiens, UniProt P54764); assay: Kinase panel screen; assay type: biochemical; details: Compound I and ATP 10 μM
T2 construct: purchased Upstate USA or Invitrogen (commercial screening service)

PKCC, = target: T3, PKCC, (Homo sapiens, UniProt Q05513); assay: Kinase panel screen; assay type: biochemical; details: Compound I and ATP 10 μM
T3 construct: purchased Upstate USA or Invitrogen (commercial screening service)

PKCy = target: T4, PKCy (Homo sapiens, UniProt P05129); assay: Kinase panel screen; assay type: biochemical; details: Compound I and ATP 10 μM
T4 construct: purchased Upstate USA or Invitrogen (commercial screening service)

PKC0 = target: T5, PKC0 (Homo sapiens, UniProt Q04759); assay: Kinase panel screen; assay type: biochemical; details: Compound I and ATP 10 μM
T5 construct: purchased Upstate USA or Invitrogen (commercial screening service)

ALK4 = target: T6, ALK4 (Homo sapiens, UniProt P36896); assay: Kinase panel screen; assay type: biochemical; details: Compound I and ATP 10 μM
T6 construct: purchased Upstate USA or Invitrogen (commercial screening service)

Met = target: T7, Met (Homo sapiens, UniProt P08581); assay: Kinase panel screen; assay type: biochemical; details: Compound I and ATP 10 μM
T7 construct: purchased Upstate USA or Invitrogen (contract screening service)

PKD2 = target: T8, PKD2 (Homo sapiens, UniProt Q9BZL6); assay: Kinase panel screen; assay type: biochemical; details: Compound I and ATP 10 μM
T8 construct: purchased Upstate USA or Invitrogen (contract screening service)

ALK = target: T9, ALK (Homo sapiens, UniProt Q9UM73); assay: Kinase panel screen; assay type: biochemical; details: Compound I and ATP 10 μM
T9 construct: purchased Upstate USA or Invitrogen (contract screening service)

Fer = target: T10, Fer (Homo sapiens, UniProt P16591); assay: Kinase panel screen; assay type: biochemical; details: Compound I and ATP 10 μM
T10 construct: purchased Upstate USA or Invitrogen (contract screening service)

FGFR2 = target: T11, FGFR2 (Homo sapiens, UniProt P21802); assay: Kinase panel screen; assay type: biochemical; details: Compound I and ATP 10 μM
T11 construct: purchased Upstate USA or Invitrogen (contract screening service)

MKK6 = MKK6 (Homo sapiens, UniProt P52564); assay: Kinase panel screen; assay type: biochemical; details: Compound I and ATP 10 μM
MSK1 = target: T12, MSK1 (Homo sapiens, UniProt O75582); assay: Kinase panel screen; assay type: biochemical; details: Compound I and ATP 10 μM
T12 construct: purchased Upstate USA or Invitrogen (contract screening service)

ROCK-I = target: T13, ROCK-I (Homo sapiens, UniProt Q13464); assay: Kinase panel screen; assay type: biochemical; details: Compound I and ATP 10 μM
T13 construct: purchased Upstate USA or Invitrogen (commercial screening service)

MST1 = target: T14, MST1 (Homo sapiens, UniProt Q13043); assay: Kinase panel screen; assay type: biochemical; details: Compound I and ATP 10 μM
T14 construct: purchased Upstate USA or Invitrogen (commercial screening service)

ROCK-II = target: T15, ROCK-II (Homo sapiens, UniProt O75116); assay: Kinase panel screen; assay type: biochemical; details: Compound I and ATP 10 μM
T15 construct: purchased Upstate USA or Invitrogen (commercial screening service)

Fyn = target: T16, Fyn (Homo sapiens, UniProt P06241); assay: Kinase panel screen; assay type: biochemical; details: Compound I and ATP 10 μM
T16 construct: purchased Upstate USA or Invitrogen (commercial screening service)

NEK6 = target: T17, NEK6 (Homo sapiens, UniProt Q9HC98); assay: Kinase panel screen; assay type: biochemical; details: Compound I and ATP 10 μM
T17 construct: purchased Upstate USA or Invitrogen (commercial screening service)

Rse = target: T18, Rse (Homo sapiens, UniProt Q06418); assay: Kinase panel screen; assay type: biochemical; details: Compound I and ATP 10 μM
T18 construct: purchased Upstate USA or Invitrogen (commercial screening service)

Rsk3 = target: T19, Rsk3 (Homo sapiens, UniProt Q15349); assay: Kinase panel screen; assay type: biochemical; details: Compound I and ATP 10 μM
T19 construct: purchased Upstate USA or Invitrogen (commercial screening service)

PDGFRa = target: T20, PDGFRa (Homo sapiens, UniProt P16234); assay: Kinase panel screen; assay type: biochemical; details: Compound I and ATP 10 μM
T20 construct: purchased Upstate USA or Invitrogen (commercial screening service)

IKKβ = target: T21, IKKβ (Homo sapiens, UniProt O14920); assay: Kinase panel screen; assay type: biochemical; details: Compound I and ATP 10 μM
T21 construct: purchased Upstate USA or Invitrogen (commercial screening service)

IR = target: T22, IR (Homo sapiens, UniProt P06213); assay: Kinase panel screen; assay type: biochemical; details: Compound I and ATP 10 μM
T22 construct: purchased Upstate USA or Invitrogen (commercial screening service)

Syk = target: T23, Syk (Homo sapiens, UniProt P43405); assay: Kinase panel screen; assay type: biochemical; details: Compound I and ATP 10 μM
T23 construct: purchased Upstate USA or Invitrogen (contract screening service)

INK3 = INK3 (Rattus norvegicus, UniProt P49187); assay: Kinase panel screen; assay type: biochemical; details: Compound I and ATP 10 μM
PKB 3 = PKB 3 (Homo sapiens, UniProt P31751); assay: Kinase panel screen; assay type: biochemical; details: read-out: Percent Control, PKB 3
PKCa = target: T24, PKCa (Homo sapiens, UniProt P17252); assay: Kinase panel screen; assay type: biochemical; details: Compound I and ATP 10 μM
T24 construct: purchased Upstate USA or Invitrogen (contract screening service)

Yes = Yes (Homo sapiens, UniProt P07947); assay: Kinase panel screen; assay type: biochemical; details: Compound I and ATP 10 μM
cSrc = target: T25, cSrc (Homo sapiens, UniProt P12931); assay: Kinase panel screen; assay type: biochemical; details: Compound I and ATP 10 μM
T25 construct: purchased Upstate USA or Invitrogen (commercial screening service)

T17 sequence (Q9HC98 whole entry): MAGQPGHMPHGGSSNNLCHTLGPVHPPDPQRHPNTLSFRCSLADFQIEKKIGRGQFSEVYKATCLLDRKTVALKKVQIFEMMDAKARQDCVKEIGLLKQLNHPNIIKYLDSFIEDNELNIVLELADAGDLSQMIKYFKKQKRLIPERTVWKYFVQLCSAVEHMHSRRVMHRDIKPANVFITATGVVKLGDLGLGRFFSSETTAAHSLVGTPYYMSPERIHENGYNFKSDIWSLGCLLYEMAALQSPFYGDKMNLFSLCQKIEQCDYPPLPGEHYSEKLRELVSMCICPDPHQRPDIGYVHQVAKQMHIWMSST
Yes, sequence (P07947 whole entry): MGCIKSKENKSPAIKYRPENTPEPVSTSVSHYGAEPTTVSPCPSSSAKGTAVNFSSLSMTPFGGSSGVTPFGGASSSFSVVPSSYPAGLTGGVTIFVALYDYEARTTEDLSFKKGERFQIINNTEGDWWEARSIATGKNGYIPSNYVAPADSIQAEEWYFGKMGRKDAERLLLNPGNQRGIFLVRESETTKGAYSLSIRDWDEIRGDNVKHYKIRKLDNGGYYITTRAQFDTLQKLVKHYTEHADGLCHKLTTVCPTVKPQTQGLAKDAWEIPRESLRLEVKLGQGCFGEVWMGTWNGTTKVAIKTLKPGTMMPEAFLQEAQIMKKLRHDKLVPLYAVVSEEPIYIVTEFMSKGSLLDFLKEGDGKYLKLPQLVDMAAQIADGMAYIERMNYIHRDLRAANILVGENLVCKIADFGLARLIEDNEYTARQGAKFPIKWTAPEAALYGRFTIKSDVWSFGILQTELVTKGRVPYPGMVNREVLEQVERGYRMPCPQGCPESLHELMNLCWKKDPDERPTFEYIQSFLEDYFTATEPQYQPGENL
T7 sequence (P08581 25-1390): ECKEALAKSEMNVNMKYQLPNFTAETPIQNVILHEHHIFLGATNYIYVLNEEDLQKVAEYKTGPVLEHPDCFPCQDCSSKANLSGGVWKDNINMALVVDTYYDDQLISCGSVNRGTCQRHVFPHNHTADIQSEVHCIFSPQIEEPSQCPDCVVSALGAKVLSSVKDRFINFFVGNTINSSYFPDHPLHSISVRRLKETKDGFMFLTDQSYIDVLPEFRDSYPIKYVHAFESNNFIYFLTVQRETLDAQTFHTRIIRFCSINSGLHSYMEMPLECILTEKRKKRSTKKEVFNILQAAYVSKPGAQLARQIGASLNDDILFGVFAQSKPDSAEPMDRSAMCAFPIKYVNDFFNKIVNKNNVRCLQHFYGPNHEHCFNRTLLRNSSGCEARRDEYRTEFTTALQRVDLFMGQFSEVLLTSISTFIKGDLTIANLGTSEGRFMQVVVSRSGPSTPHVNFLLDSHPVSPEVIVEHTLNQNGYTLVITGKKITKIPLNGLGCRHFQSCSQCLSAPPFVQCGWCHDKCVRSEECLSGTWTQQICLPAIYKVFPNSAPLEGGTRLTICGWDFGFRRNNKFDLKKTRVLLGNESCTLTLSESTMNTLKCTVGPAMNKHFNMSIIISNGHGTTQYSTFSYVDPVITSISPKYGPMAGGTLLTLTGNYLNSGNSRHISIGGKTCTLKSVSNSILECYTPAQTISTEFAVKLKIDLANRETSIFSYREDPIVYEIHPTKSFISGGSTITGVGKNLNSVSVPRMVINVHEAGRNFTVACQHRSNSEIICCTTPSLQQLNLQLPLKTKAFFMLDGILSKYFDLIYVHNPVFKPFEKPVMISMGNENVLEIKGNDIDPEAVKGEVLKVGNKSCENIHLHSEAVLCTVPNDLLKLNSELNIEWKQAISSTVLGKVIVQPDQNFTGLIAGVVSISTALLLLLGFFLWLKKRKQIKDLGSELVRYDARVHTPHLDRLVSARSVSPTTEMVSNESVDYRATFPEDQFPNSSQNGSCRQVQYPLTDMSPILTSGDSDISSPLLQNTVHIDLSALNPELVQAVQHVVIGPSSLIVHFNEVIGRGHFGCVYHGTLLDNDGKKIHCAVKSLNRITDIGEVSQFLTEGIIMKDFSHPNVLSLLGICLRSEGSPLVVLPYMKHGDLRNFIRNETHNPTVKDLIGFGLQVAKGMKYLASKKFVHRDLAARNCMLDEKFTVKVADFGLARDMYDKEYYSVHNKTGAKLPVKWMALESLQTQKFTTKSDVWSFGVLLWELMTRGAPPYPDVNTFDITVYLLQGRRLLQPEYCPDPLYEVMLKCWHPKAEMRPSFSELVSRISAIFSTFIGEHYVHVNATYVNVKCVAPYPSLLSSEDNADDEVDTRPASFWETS
PKB 3, sequence (P31751 whole entry): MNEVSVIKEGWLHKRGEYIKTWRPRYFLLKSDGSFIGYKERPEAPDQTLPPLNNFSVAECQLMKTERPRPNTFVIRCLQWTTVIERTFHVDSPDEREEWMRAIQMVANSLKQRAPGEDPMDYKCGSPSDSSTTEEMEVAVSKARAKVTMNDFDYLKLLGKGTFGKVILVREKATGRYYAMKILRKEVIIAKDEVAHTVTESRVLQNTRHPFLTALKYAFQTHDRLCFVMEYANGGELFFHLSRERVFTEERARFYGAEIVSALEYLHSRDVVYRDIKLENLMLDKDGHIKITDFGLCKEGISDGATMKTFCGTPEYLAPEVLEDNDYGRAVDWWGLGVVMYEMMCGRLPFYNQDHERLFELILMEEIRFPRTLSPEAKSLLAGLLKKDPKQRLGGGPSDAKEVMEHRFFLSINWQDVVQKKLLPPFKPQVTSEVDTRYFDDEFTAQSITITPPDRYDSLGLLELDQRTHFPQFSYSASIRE
T15 sequence (O75116 whole entry): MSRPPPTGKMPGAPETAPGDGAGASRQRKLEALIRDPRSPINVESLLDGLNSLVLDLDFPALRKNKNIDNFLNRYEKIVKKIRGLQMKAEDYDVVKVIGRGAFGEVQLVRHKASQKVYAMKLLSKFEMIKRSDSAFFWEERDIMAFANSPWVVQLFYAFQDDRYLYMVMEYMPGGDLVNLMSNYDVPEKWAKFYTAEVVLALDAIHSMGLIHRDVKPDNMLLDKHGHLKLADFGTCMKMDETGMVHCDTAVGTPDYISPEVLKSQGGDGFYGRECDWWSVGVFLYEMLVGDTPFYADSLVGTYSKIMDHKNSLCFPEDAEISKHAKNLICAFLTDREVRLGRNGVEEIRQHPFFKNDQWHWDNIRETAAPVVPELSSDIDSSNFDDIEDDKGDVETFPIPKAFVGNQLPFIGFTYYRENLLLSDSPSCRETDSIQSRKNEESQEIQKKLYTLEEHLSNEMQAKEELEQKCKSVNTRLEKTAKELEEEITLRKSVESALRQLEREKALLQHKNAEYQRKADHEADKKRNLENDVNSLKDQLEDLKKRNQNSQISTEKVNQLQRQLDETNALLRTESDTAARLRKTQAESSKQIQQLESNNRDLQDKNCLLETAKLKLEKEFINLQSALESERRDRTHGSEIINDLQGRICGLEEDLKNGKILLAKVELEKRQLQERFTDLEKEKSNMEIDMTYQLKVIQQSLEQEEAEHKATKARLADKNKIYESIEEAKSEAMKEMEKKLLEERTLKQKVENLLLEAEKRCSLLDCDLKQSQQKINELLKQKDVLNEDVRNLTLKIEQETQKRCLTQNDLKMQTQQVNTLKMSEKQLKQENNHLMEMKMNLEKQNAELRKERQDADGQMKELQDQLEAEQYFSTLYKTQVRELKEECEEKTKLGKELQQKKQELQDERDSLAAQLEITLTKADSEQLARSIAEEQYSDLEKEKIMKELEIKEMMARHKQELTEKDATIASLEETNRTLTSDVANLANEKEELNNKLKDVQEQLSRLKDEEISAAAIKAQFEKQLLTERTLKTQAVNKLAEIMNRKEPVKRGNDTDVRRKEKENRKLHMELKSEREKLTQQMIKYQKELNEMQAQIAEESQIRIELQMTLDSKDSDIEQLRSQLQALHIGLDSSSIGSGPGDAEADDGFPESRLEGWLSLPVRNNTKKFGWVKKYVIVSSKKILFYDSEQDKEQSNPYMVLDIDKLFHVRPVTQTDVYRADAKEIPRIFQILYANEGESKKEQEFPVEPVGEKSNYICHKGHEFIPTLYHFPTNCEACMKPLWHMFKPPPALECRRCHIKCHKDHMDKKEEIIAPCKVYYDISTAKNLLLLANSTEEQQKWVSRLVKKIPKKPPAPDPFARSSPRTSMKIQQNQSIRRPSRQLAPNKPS
T14 sequence (Q13043 whole entry): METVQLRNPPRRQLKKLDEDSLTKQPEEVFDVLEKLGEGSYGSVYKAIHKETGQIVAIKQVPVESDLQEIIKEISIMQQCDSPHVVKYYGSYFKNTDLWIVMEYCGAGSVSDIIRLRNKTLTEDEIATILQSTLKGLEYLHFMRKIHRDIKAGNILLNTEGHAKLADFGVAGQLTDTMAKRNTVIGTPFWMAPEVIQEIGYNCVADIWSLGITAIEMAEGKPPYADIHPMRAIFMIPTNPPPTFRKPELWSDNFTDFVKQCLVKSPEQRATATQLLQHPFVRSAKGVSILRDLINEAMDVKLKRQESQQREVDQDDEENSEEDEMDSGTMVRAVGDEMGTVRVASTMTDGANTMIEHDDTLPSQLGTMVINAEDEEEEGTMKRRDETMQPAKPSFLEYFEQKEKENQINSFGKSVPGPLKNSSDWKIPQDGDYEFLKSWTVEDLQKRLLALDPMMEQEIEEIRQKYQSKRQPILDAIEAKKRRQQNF
MKK6, sequence (P52564 whole entry): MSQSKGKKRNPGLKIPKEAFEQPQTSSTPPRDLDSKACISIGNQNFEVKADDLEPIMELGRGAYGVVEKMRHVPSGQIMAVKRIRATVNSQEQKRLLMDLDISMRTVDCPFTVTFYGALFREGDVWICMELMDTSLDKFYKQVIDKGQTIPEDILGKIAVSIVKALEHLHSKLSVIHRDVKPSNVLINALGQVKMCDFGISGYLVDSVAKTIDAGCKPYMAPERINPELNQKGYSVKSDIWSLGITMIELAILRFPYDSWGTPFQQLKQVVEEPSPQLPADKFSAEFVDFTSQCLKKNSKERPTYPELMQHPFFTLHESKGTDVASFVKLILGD

Compound: Nc1nc(N)c2nc(-c3cccc(O)c3)c(-c3cccc(O)c3)nc2n1 [Compound I, 6,7-bis-(3-hydroxyphenyl)-pteridine-2,4-diamine]
- effect on EC proliferation (EC): no effects
- VEGF-stimulated ERK phosphorylation (ERK phosphorylation): no influence
- VEGF signaling culminating in VE-cadherin phosphorylation [1]: interrupt
- Percent Control, EphA2 (EphA2): 29%
- Percent Control, PKCi (PKCi): 105%
- Percent Control, EphA4 (EphA4): 119%
- Percent Control, PKCC, (PKCC,): 99%
- Percent Control, PKCy (PKCy): 75%
- Percent Control, PKC0 (PKC0): 73%
- Percent Control, ALK4 (ALK4): 91%
- Percent Control, Met (Met): 41%
- Percent Control, PKD2 (PKD2): 37%
- Percent Control, ALK (ALK): 48%
- Percent Control, Fer (Fer): 80%
- Percent Control, FGFR2 (FGFR2): 73%
- Percent Control, MKK6 (MKK6): 75%
- Percent Control, MSK1 (MSK1): 92%
- Percent Control, ROCK-I (ROCK-I): 93%
- Percent Control, MST1 (MST1): 107%
- Percent Control, ROCK-II (ROCK-II): 81%
- Percent Control, Fyn (Fyn): 54%
- Percent Control, NEK6 (NEK6): 97%
- Percent Control, Rse (Rse): 93%
- Percent Control, Rsk3 (Rsk3): 90%
- Percent Control, PDGFRa (PDGFRa): 86%
- Percent Control, IKKβ (IKKβ): 68%
- Percent Control, IR (IR): 81%
- Percent Control, Syk (Syk): 76%
- Percent Control, INK3(r) (INK3): 64%
- remaining activity at 10 µM (PKB 3): 103%
- Percent Control, PKCa (PKCa): 90%
- Percent Control, Yes (Yes): 30%
- Percent Control, cSrc (cSrc): 53%
